Assay results taken from patent US20260008793A1, “IONIZABLE CATIONIC LIPIDS INCORPORATING SILICON” (ALDEXCHEM KFT., priority 2022, published 2026).

Legend:
[1] = LNP size, PDI and zeta potential by Dynamic Light Scattering (Method A); assay type: physicochemical; conditions: LNP formulated by Method A; for Zeta potential (mV): 1xPBS pH 7.4; for PDI / Size (nm): DLS; for Size (nm): Luciferase-mRNA loaded
Outline: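 Dynamic light scattering gave particle size, PDI and zeta potential of the LNPs. These were made by microfluidic mixing, 3:1 aqueous to ethanol, of mRNA in 10 mM citrate pH 4.0 with a lipid master mix carrying the ionizable lipid, then dialysed through 100 kDa MWCO tubing.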

HeLa cells = assay: Transfection efficiency with Luciferase-mRNA, Nano-Glo assay (Method A); assay type: cell-based; conditions: 100 ng Luciferase (SecNLuc) mRNA, 24 h, luminescence; also: unit not given here
Outline: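 Luminescence of secreted NanoLuc in culture medium, read ~3 min after Nano-Glo reagent, reports transfection. HeLa cells grown to ~80% confluence got 100/50/10 ng mRNA per well as LNPs for 24 h, with a parallel resazurin toxicity readout.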

SMILES | Zeta potential (mV) [1] [mV] | PDI [1] | Size (nm) [1] [nm] | Transfection* (Method A = 100 ng mRNA) (HeLa cells)
CCCCCCCCOC(CCCCCN(CCCCO)CCCCCCOC(=O)C(CCCCCCCC)SCCCCC)O[Si](C)(C)OCCCCCCCC (stereo not drawn) [Example 179, 7-(4-hydroxybutyl)-15,15-dimethyl-13-(octyloxy)-14,16-dioxa-7-aza-15-silatetracosyl 2-(pentylthio)decanoate] | −10.65 | 0.038 | 189.1 | 41726
CCCCCCCCOC(CCCCCN(CCCCO)CCCCCCOC(=O)C(CCCCCCCC)SCCCCC)O[Si](C)(C)O[Si](C)(C)CCCCCCCC (stereo not drawn) [Example 181, 6-((4-hydroxybutyl)(6-(octyloxy)-6-((1,1,3,3-tetramethyl-3-octyldisiloxaneyl)oxy)hexyl)amino)hexyl 2-(pentylthio)decanoate] | −14.73 | 0.049 | 188.6 | 14238
CCCCCCCCC(SCCCCC)C(=O)OCCCCCCN(CCCCO)CCCCCCOC(CCCCCCC)O[Si](C)(C)O[Si](C)(C)CCCCCCCC (stereo not drawn) [Example 182, 15-heptyl-7-(4-hydroxybutyl)-17,17,19,19-tetramethyl-14,16,18-trioxa-7-aza-17,19-disilaheptacosyl 2-(pentylthio)decanoate] | −12.56 | 0.045 | 136.8 | 227368
CCCCCCCCOC(CCCCCN(CCCCO)CCCCCCOC(=O)C(CCCCCCCC)SCCCCC)O[Si](C)(C)O[Si](C)(C)OCCCCCCCC (stereo not drawn) [Example 183, 6-((4-hydroxybutyl)(6-(octyloxy)-6-((1,1,3,3-tetramethyl-3-(octyloxy)disiloxaneyl)oxy)hexyl)amino)hexyl 2-(pentylthio)decanoate] | −10.92 | 0.044 | 143.9 | 968235
CCCCCCCCO[Si](C)(C)O[Si](C)(C)OC(CCCCCCC)OCCCCCCN(CCCCO)CCCCCCOC(=O)C(CCCCCCCC)SCCCCC (stereo not drawn) [Example 184, 15-heptyl-7-(4-hydroxybutyl)-17,17,19,19-tetramethyl-14,16,18,20-tetraoxa-7-aza-17,19-disilaoctacosyl 2-(pentylthio)decanoate] | −14.83 | 0.146 | 237.5 | 883795
CCCCCCCCOC(CCCCCN(CCCCO)CCCCCCOC(=O)C(CCCCCCCC)SCCCCC)O[Si](C)(C)OCC(CCCCCC)CCCCCCCC (stereo not drawn) [Example 185, 18-hexyl-7-(4-hydroxybutyl)-15,15-dimethyl-13-(octyloxy)-14,16-dioxa-7-aza-15-silahexacosyl 2-(pentylthio)decanoate] | −16.4 | 0.04 | 213.6 | 1019830
CCCCCCCCOC(CCCCCCC)O[Si](C)(C)CCCCCCN(CCCCO)CCCCCCOC(=O)C(CCCCCCCC)SCCCCC (stereo not drawn) [Example 187, 16-heptyl-7-(4-hydroxybutyl)-14,14-dimethyl-15,17-dioxa-7-aza-14-silapentacosyl 2-(pentylthio)decanoate] | −14.47 | 0.255 | 334.9 | 838984
CCCCCCCCOC(CCCCCN(CCO)CCCCCCCC(=O)OC(CCCCCCCC)CCCCCCCC)O[Si](C)(C)CCCCCCCC (stereo not drawn) [Example 189, heptadecan-9-yl 8-((6-((dimethyl(octyl)silyl)oxy)-6-(octyloxy)hexyl)(2-hydroxyethyl)amino)octanoate] | −10.68 | 0.066 | 170 | 45731
CCCCCCCCOC(CCCCCN(CCO)CCCCCCCC(=O)OC(CCCCCCCC)CCCCCCCC)O[Si](C)(C)OCCCCCCCC (stereo not drawn) [Example 190, heptadecan-9-yl 18-(2-hydroxyethyl)-10,10-dimethyl-12-(octyloxy)-9,11-dioxa-18-aza-10-silahexacosan-26-oate] | −11.40 | 0.075 | 208.2 | 15121
